From patent US11246856B2, “Methods of treating resistant cancers” (University of Maryland, Baltimore, priority 2017, dated 2022)
“Also recorded” adds a separate entry of the source.

What was measured:
[1] = system: A375 cells; assay: Cell proliferation, monolayer A375 cells; format: cell-based; details: PLX4032 treatment, FIG. 1D
Protocol: (§1) A375, SK-MEL-5 and SK-MEL-28 cell lines were maintained in DMEM growth medium containing 10% FCS, 2 mM L-glutamine and 1 mM sodium pyruvate. The WM3248 cells were maintained in MCDB153:L15 (4:1) growth medium containing 2% FCS, […] insulin and 1.68 mM CaCl2. To create PLX4032-resistant cells, A375, SK-MEL-5, SK-MEL-28 and WM3248 cells were treated with […] in monolayer culture in growth medium for several weeks. The surviving cells were then expanded and cultured in increasing doses of PLX4032 up to […]. The resulting PLX4032-resistant cells, designated PLX4032-resistant (e.g., A375-PLX-R) were routinely maintained in the presence of […] PLX4032.

[2] = system: A375 cells; assay: Spheroid formation assay, A375; format: cell-based
Protocol: (§2) Cancer cells were maintained under attached conditions in growth media containing DMEM (Invitrogen, Frederick, Md.) supplemented with 4.5 mg/ml D-glucose, […] L-glutamine, 100 mg/ml sodium pyruvate, and 5% fetal calf serum. For spheroid culture, monolayer cultures were dissociated with 0.25% trypsin and the cells were collected by centrifugation, and resuspended in spheroid media, consisting of DMEM/F12 (1:1) (DMT-10-090-CV, Mediatech INC, Manassa, Va.) containing 2% B27 serum-free supplement (17504-044, Invitrogen, Frederick, Md.) 20 ng/ml EGF (E4269, Sigma, St. Louis), 0.4% bovine serum albumin (B4287, Sigma) and […] insulin (19278 Sigma, St. Louis, Mo.) and plated at 40,000 cells per 9.6 cm^2 well in six well ultra-low attachment Costar cluster dishes (4371, Corning, Tewksbury, Mass.). Parallel cultures were plated in spheroid media on conventional plastic dishes for growth as monolayer cultures.

[3] = system: A375-PLX-R cells; assay: Spheroid formation assay, A375-PLX-R; format: cell-based
Protocol: as §2, §1

[4] = system: A375 cells; assay: Matrigel invasion assay, A375; format: cell-based
Protocol: (§3) Matrigel (BD Biolabs) was diluted in 0.01 M Tris-HCL/0.7% NaCl, filter-sterilized and 0.1 ml was used to cover the membrane in BD BioCoat cell inserts (#353097, […], 24 well format, membrane growth area=0.33 cm^2). Cells 25,000/well were plated in […] of growth media containing 1% FCS atop the Matrigel. Growth media containing 10% FCS was added to the lower well and cells were incubated overnight at 37 C. The following day, excess cells from the top side of the membrane were removed with a cotton swab, and the membrane was rinsed in phosphate-buffered saline, fixed with 4% paraformaldehyde for 10 minutes, washed and stained in […] DAPI for 10 minutes to visualize the cells. The underside of the membrane was photographed with an inverted fluorescent microscope to count the number of cells that had migrated through the Matrigel layer (38).

[5] = system: A375-PLX-R cells; assay: Matrigel invasion assay, A375-PLX-R; format: cell-based; set-up: suppression of matrigel invasion at higher verteporfin concentrations: dose or concentration left out as unconfirmed
Protocol: as §3, §1

[6] = system: PLX4032-resistant SK-MEL-5, SK-MEL-28 and WM3248 cells; assay: Spheroid formation, other PLX4032-resistant melanoma lines; format: cell-based; details: PLX4032-resistant SK-MEL-5, SK-MEL-28, WM3248; FIGS. 5B, 5E
Protocol: as §2
(§4) A375, SK-MEL-5 and SK-MEL-28 cell lines were maintained in DMEM growth medium containing 10% FCS, 2 mM L-glutamine and 1 mM sodium pyruvate. […]
(§5) The impact of verteporfin on additional PLX4032 resistant melanoma cancer cell lines was examined. […] To determine whether YAP1 and TAZ can antagonize PLX4032 action, constitutively active YAP1 and TAZ were expressed in wild-type SK-MEL-28 cells and the impact on cell proliferation was monitored.

[7] = system: PLX4032-resistant SK-MEL-5, SK-MEL-28 and WM3248 cells; assay: Matrigel invasion, other PLX4032-resistant melanoma lines; format: cell-based; details: PLX4032-resistant SK-MEL-5, SK-MEL-28, WM3248; FIGS. 5C, 5F
Protocol: as §3, §4, §5

[8] = system: A375-PLX-R spheroid cell-derived tumors; assay: Tumor xenograft assay, A375-PLX-R spheroid cell-derived tumors; format: in vivo, NSG mice
Protocol: Cells were grown for ten days as spheroids and a single cell suspension, prepared by trypsin digestion, was resuspended in phosphate buffered saline containing 30% Matrigel and 100 μl containing 0.1 million cells were injected subcutaneously at the two front flanks of NOD/scid/IL2 receptor gamma-knockout mice (NSG mice) using a 26.5 gauge needle. PLX4032 was dissolved in phosphate-buffered saline containing 10% DMSO and delivered at 20 mg/kg by oral gavage in […] three times per week (M/W/F). Verteporfin was dissolved in phosphate-buffered saline containing 10% DMSO and 0-100 mg/kg was delivered by intraperitoneal injection of […] three times per week (M/W/F). Five mice were used per group (two tumors per mouse) and treatment was initiated two days after tumor cell injection. Tumor growth was monitored by measuring tumor diameter and calculating tumor volume using the formula, volume=4/3π×(diameter/2)^3. Mice were euthanized by injection of 250 μl of a 2.5% stock of Avertin per mouse followed by cervical dislocation of the neck. Tumor samples were harvested to prepare extract for immunoblot and sections for immunostaining. These experiments were reviewed and approved by the University of Maryland-Baltimore Institutional Animal Care and Use Committee. The plotted values are mean±SEM and significance were determined using the students t-test.

[9] = system: pre-formed spheroids; assay: Treatment of pre-formed spheroids; format: cell-based
Protocol: as §2
Identification of agents that suppress survival of PLX4032-resistant cells, or re-sensitize these cells to PLX4032, is an important goal. […] YAP1 interacts with TEAD transcription factors to drive gene expression (6,28) and a small molecular inhibitor called verteporfin has been reported to disrupt YAP1/TEAD interaction by binding to YAP1 and altering its structure (6,16). The impact of verteporfin treatment on spheroid formation and matrigel invasion in PLX4032 sensitive and resistant MCS cells was examined.

Q: Which A375 cell proliferation [1] does the source give for `CCCS(=O)(=O)Nc1ccc(F)c(C(=O)c2c[nH]c3ncc(-c4ccc(Cl)cc4)cc23)c1F` [PLX4032] here?
A: reduces

Q: And the spheroid formation ([2]; A375 cells, FIGS. 2A-2B)?
A: suppressed

Q: And the A375-PLX-R spheroid formation ([3]; 0-1 μM PLX4032, no verteporfin, FIG. 5A legend)?
A: does not suppress

Q: What about the A375-PLX-R spheroid formation ([3]; 0-1 mM PLX4032, no verteporfin, FIG. 5A) of the same compound?
A: did not suppress

Q: And the spheroid formation ([3]; A375-PLX-R cells, FIGS. 2A-2B)?
A: not

Q: What about the matrigel invasion ([4]; A375, PLX4032 treatment) of the same compound?
A: not suppressed; also recorded: did not impact

Q: What about the matrigel invasion ([5]; A375-PLX-R, PLX4032 treatment) of the same compound?
A: not suppressed; also recorded: did not impact

Q: What about the spheroid formation [6] of the same compound?
A: did not reduce

Q: What about the matrigel invasion [7] of the same compound?
A: did not reduce

Q: And the “ERK1/2-P level in tumors” value ([8]; PLX4032 20 mg/kg in the presence of verteporfin)?
A: reduced

Q: What about the “tumor growth / tumor formation” value ([8]; PLX4032 20 mg/kg oral gavage three times per week, absence of verteporfin, 20 mg/kg) of the same compound?
A: did not suppress

Q: For verteporfin, which IC50 ([2]; A375, FIG. 4A legend, read-out: verteporfin concentration suppressing spheroid formation by 50%) is on record?
A: 100 to 250 nM

Q: What about the “spheroid formation at higher verteporfin concentrations” value ([2]; A375, above 0.1-0.25 mM) of the same compound?
A: nearly completely inhibited

Q: And the IC50 ([3]; A375-PLX-R, FIG. 4B legend, read-out: verteporfin concentration suppressing spheroid formation by 50%)?
A: 100 to 250 nM

Q: And the “spheroid formation at higher verteporfin concentrations” value ([3]; A375-PLX-R, above 0.1-0.25 mM)?
A: nearly completely inhibited

Q: What about the “PLX4032 suppression of spheroid number on verteporfin co-treatment” value ([3]; co-treatment 0.1 μM verteporfin with 0-1 μM PLX4032, FIG. 5A legend) of the same compound?
A: restores

Q: What about the “PLX4032 suppression of spheroid number on verteporfin co-treatment” value ([3]; co-treatment 0.1 mM verteporfin with 0-1 mM PLX4032, FIG. 5A) of the same compound?
A: restored

Q: And the “reduction of spheroid number/integrity” value ([9]; 20 μM verteporfin, 3-day treatment, FIG. 4C legend)?
A: 30-50%

Q: What about the “pre-formed spheroids after prolonged treatment” value ([9]; prolonged verteporfin treatment (not shown)) of the same compound?
A: complete destruction

Q: And the “reduction of spheroid number/integrity” value ([9]; spheroids formed for 8 d, 3D treatment, FIG. 4C)?
A: 30-50%

Q: And the “suppression of matrigel invasion at higher verteporfin concentrations” value ([4]; A375 (FIG. 4D), above 0.5-1 mM)?
A: nearly complete

Q: And the IC50 ([4]; A375, FIG. 4D legend, read-out: verteporfin concentration giving 50% suppression of matrigel invasion)?
A: 500 to 1000 nM

Q: And the “suppression of matrigel invasion at higher verteporfin concentrations” value ([5]; A375-PLX-R (FIG. 4E))?
A: nearly complete

Q: What about the IC50 ([5]; A375-PLX-R, FIG. 4E legend, read-out: verteporfin concentration giving 50% suppression of matrigel invasion) of the same compound?
A: 500 to 1000 nM

Q: And the spheroid formation [6]?
A: reduced

Q: What about the matrigel invasion [7] of the same compound?
A: reduced

Q: And the “YAP1, YAP1-P, TAZ and TEAD levels in tumors” value ([8]; 10 mg/kg verteporfin/20 mg/kg PLX4032-treated tumors, FIG. 7C)?
A: reduction

Q: What about the tumor size ([8]; verteporfin 0-100 mg/kg intraperitoneal three times per week, FIGS. 7A-7B) of the same compound?
A: dose-dependent reduction

Q: And the tumor formation ([8]; verteporfin 10 mg/kg alone)?
A: does not suppress

Q: And the “PLX4032-dependent suppression of tumor formation” value ([8]; verteporfin 10 mg/kg with PLX4032 20 mg/kg)?
A: restores
